From patent US20150209474A1, “METHOD FOR PRODUCING AN ALGINATE COATED TITANIUM DIOXIDE SCAFFOLD” (CORTICALIS AS, priority 2012, published 2015)
Ends that are not written are not given here.

Legend:
[1] = test system: primary human osteoblasts; assay: Cytotoxicity assay: LDH activity in culture medium; assay type: cell-based; conditions: for LDH activity compared to alginate-coated scaffolds without SIM: 14-day period
Description: Cells from passages 7-9 were seeded on scaffolds at a density of 400.000 cells/ml. […] Scaffolds soaked with culture medium were placed in 48-well culture plates. […] The culture medium was replaced every other day. Collected medium was saved for use in cytotoxicity, alkaline phosphatase (ALP) activity and protein expression assays.

[2] = test system: MC3T3-E1 cells; assay: Gene expression of adhesion and osteoblast markers by real-time RT-PCR, cells on alginate hydrogels; assay type: cell-based, mouse; conditions: 50 μg/ml in 2% alginate gel
Description: (§1) The mouse osteoblastic cell line MC3T3-E1 (DSMZ, Braunschweig, Germany) was maintained as previously described (Tiainen H et al., 2011). Before seeding, 24-well culture plates containing crosslinked alginate hydrogels were washed with 750 μl of culture media to remove the excess of CaCl2. After evaluation of the efficiency of cell adhesion on 2% alginate gel using different cell densities, for the final experiments, cells were seeded at a density of 100 000 cells/well. Media was refreshed twice a week. Culture media was collected 24 h after seeding to study cell viability. Cells were harvested at days 14 and 21 to analyze gene expression of adhesion and osteogenic-related markers using real-time RT-PCR. Cultures were routinely observed using light microscopy (Leica DMIRB, Leica Microsystems Wetzlar GmbH, Germany).
Total RNA was isolated using Tripure® (Roche Diagnostics, Mannheim, Germany), according to the manufacturer's protocol. Total RNA was quantified at 260 nm using a Nanodrop spectrophotometer (NanoDrop Technologies, Wilmington, Del., USA).
The same amount of RNA (350 ng) was reverse transcribed to cDNA using high capacity RNA-to-cDNA kit (Applied Biosystems, Foster City, Calif.), according to the protocol of the supplier. Aliquots of each cDNA were frozen (−20° C.) until the PCR reactions were carried out.
Real-time PCR was performed in the Lightcycler 480® (Roche Diagnostics, Mannheim, Germany) using SYBR green detection. Real-time PCR was done for two reference genes (18SrRNA and glyceraldehyde-3-phosphate dehydrogenase (GAPDH)) and ten target genes (integrin alpha 8 (Itga8), integrin beta1 (Itgb1), integrin beta 3 (Itgb3), fibronectin 1 (Fn1), bone morphogenetic protein 2 (Bmp2), collagen type I (Coll-I), bone sialoprotein (Bsp), alkaline phosphatase (Alp), osteocalcin (Oc) and osteopontin (Opn)).
The primer sequences are detailed in Table 2. Reaction conditions and relative quantification have been done as previously described (Tiainen H et al., 2011).

[3] = Peptide 2 release profile from TiO2 scaffolds coated with 2% alginate gel (UV-Vis); assay type: physicochemical; conditions: P2-alginate-coated scaffolds, distilled water, 37° C.
Description: In order to mimic cell culture conditions, the samples were agitated on an orbital shaker at 200 rpm (IKA® Schüttler MTS 2, Germany) for 6 h at 37° C. and in humidity conditions (using a distilled water container). Then, samples were maintained at 37° C. in a humidified atmosphere for up to 21 days. At prefixed time points (2d, 5d, 7d, 9d, 12d, 14d, 16d, 19d and 21d), distilled water was collected and fresh distilled water was added into each well. Sample absorbances were analyzed by UV-Vis spectrophotometer (PerkinElmer® Lambda 25 UV/Vis Systems, USA) at a wavelength of 206 nm to determine the amount of peptide released. In parallel, TiO2 scaffolds coated with one layer of 2% alginate gel were used as control to subtract absorbance values obtained from degradation products from alginate.
Relative absorbance units were correlated with the amount of peptide released using a linear standard curve for each time point and the cumulative P2 released was then calculated. The experiment was performed in triplicate.

[4] = test system: MC3T3-E1 cells; assay: Cell viability: LDH activity in culture media, cells on alginate hydrogels; assay type: cell-based, mouse; conditions: 50 μg/ml in alginate gel
Description: as §1
The LDH activity determined in the culture media after 24 h was taken as an indicator of membrane leakage or cell lysis. The activity of the cytosolic enzyme was estimated as previously described (Rupert M et al., 2011).

[5] = Peptide release profile from 2% alginate hydrogel (fluorescence spectroscopy); assay type: physicochemical
Description: To study the peptide release profile, P2 was labeled with FITC. The release of peptide contained into the 2% alginate hydrogel (50 μg/ml) was quantified by fluorescence spectroscopy. First, alginate hydrogels were washed with culture media to remove the excess of CaCl2. Then, 750 μl of cell culture media were added onto peptide loaded alginate hydrogel. The samples were incubated at 37° C. and 5% CO2 for 21 days and cell culture media was changed twice a week. At prefixed time points (24 h, 4 d, 7 d, 11 d, 14 d, 18 d and 21 d), supernatants were collected and analyzed by fluorescence spectroscopy (λ ex 490 nm and λ em 525 nm) to determine the amount of peptide released to the media. The amount of peptide released during the washing step was also measured. The experiment was performed three times, and each sample analyzed in triplicate.
Relative fluorescence units were correlated with the amount of peptide released using a linear standard curve for each time point.

CCC(C)(C)C(=O)O[C@H]1C[C@@H](C)C=C2C=C[C@H](C)[C@H](CC[C@@H]3C[C@@H](O)CC(=O)O3)[C@H]21 [SIM, simvastatin]
LDH activity compared to alginate-coated scaffolds without SIM ([1]; scaffolds with 10 nM SIM): Neither of the SIM concentrations caused a significant increase | LDH activity compared to alginate-coated scaffolds without SIM ([1]; scaffolds with 10 μM SIM): Neither of the SIM concentrations caused a significant increase | LDH activity, scaffolds with 10 μM SIM compared to scaffolds with 10 nM SIM ([1]; throughout the 14-day period): higher

PHQPMQPQPPVHPMQPLPPQPPLPP (Synthetic biomineralizing peptide) [Peptide P6]
ALP mRNA levels compared to control ([2]; 14 days): significantly decreased | Expression of Opn compared to control ([2]; 14 days): decreased significantly | Fn1 mRNA compared to control ([2]; 14 days): decreased significantly | Itgb1 mRNA levels compared to control ([2]; 14 days): significantly decreased | Itgb3 mRNA compared to control ([2]; 14 days): decreased significantly | Bmp2 relative mRNA levels ([2]; 14 days of treatment): increased significantly | ALP mRNA levels compared to control ([2]; 21 days): significantly decreased | Itgb1 mRNA levels compared to EMD ([2]; 21 days): reduced significantly | Itgb3 and Fn1 mRNA compared to control ([2]; 21 days): no differences | Oc mRNA levels compared to control ([2]; 21 days): increased

PLVPSQPLVPSQPLVPSQPQPPLPP [Peptide P2]
amount of peptide released after 5 days [3]: 9.4 % of the cumulative amount rel | burst release of the peptide during the first 2 days of incubation [3]: 42.8 % of the cumulative amount of P2 released after 21 days | cell viability compared to EMD ([4]; after 24 h): significantly increased | Expression of Opn compared to control ([2]; 14 days): decreased significantly | Fn1 mRNA compared to control ([2]; 14 days): decreased significantly | Itgb1 mRNA levels compared to control ([2]; 14 days): significantly decreased | Itgb3 mRNA compared to control ([2]; 14 days): decreased significantly | ALP mRNA levels compared to control ([2]; 21 days): significantly decreased | Bmp2 relative mRNA levels compared to EMD ([2]; 21 days): decreased | Itgb3 and Fn1 mRNA compared to control ([2]; 21 days): no differences | burst release of the peptide during the first 24 h of incubation ([5]; P2 FITC-labeled, 50 μg/ml in 2% alginate hydrogel, culture media, 37° C.): 54.67% | total peptide theoretically contained in the hydrogel not released after 21 days ([5]; P2 FITC-labeled, 2% alginate hydrogel, 21 days): 5.6% | peptide slowly released up to 11 days ([5]; P2 FITC-labeled, 2% alginate hydrogel, after the first 24 h, up to 11 days): 25.8% | loaded peptide released during the washing step ([5]; washing of alginate hydrogels with culture media to remove excess CaCl2): 12.7%

PLVPSSPLVPCCPLVPCCPSPPLPP (Synthetic biomineralizing peptide) [Peptide P5]
toxic effects compared to EMD and to untreated alginate gel ([4]; 24 h): significantly lower | Oc mRNA levels compared to control ([2]; 21 days): increased | Expression of Itga8 compared to control ([2]; "after days of culture" (number not given)): increased | Itga8 expression ([2]; after 21 days of treatment): markedly
